{"source": "patent US4112105A", "about": "“Anti-inflammatory 3-(substituted-amino)-2,1-benzisothiazoles” (Sterling Drug Inc., priority 1977, dated 1978)", "assay": "anti-inflammatory activity (test not given)", "details": "in vivo", "procedure": "Anti-inflammatory activity was determined using (1) the inhibition of carrageenin-induced foot edema test essentially described by Van Arman et al., J. Pharmocol. Exptl. Therap. 150, 328 (1965) as a modification of the procedure of Winter et al., Proc. Soc. Exp. Biol. and Med. 111, 544 (1962) and (2) a modification of the inhibition of adjuvant-induced arthritis test described by Pearson, J. Chronic Diseases 16, 863 (1963) and Glenn et al., Am. J. Vet. Res. 26, 1180 (1965)."}
{"compound": "CCN(CC)CCCC(C)Nc1snc2ccccc12", "note": "(stereo not shown) [3-[4-(diethylamino)-1-methylbutylamino]-2,1-benzisothiazole]", "values": [{"measurement": "anti-inflammatory activity (in words)", "result": "useful anti-inflammatory activity"}]}
